Measurements taken from patent US11571413B2, “Nicotinamide riboside treatments of domesticated meat animals” (Kansas State University Research Foundation, priority 2017, dated 2023).
Marks after values point to notes of the source that are not given here.

Test system: Fertilized Cobb 500 broiler eggs
Assay: In ovo NR dose, time course of body and pectoralis major morphometrics at E15, E19, hatch (second Example VI)
Assay type: in vivo, chicken
Method: Fertilized Cobb 500 broiler eggs (N=247; Cobb Vantress, Siloam Springs, Ark.) were transported to Kansas State University Muscle Biology Laboratory (Manhattan, Kans.), egg weights were recorded, and within each 4 egg strata eggs were randomly assigned to an NR treatment (0 mM, 250 mM, 500 mM, or 1 M NR). After treatment allocation, eggs were put onto trays and placed in a Sportsman 1502 incubator (GQF Manufacturing Company Inc., Savannah, Ga.) set to operate at 37° C. and 40±4% relative humidity. Trays were rotated hourly to reposition eggs and egg weights were recorded daily to determine percentage weight loss with a standard daily weight loss ranging from 0.65% to 0.75%.
At d 10 of incubation, the methods of Gonzalez and Jackson (2020) were followed for treatment administration. Eggs were briefly removed from the incubator and prior to injection, the injection site was cleaned with 70% ethanol. […] of 0.9% sterile saline was injected into yolk sac of each egg with a 2.54-cm, 20-guage injection needle inserted approximately 1-cm into injection site. The injection site was covered with a 1-cm^2 portion of medical tape (Nexcare; 3M, Maplewood, Minn.) and placed back into the incubator under the conditions described above. At d 18 of incubation, egg were removed from their trays, placed in hatching boxes, and the humidity of the incubator was increased to 60±2%.
At three time points, E (i.e., embryonic day 15, day 15 after the beginning of incubation), E19, and 24 hours post-hatching, embryos and chicks were euthanized by exposure to CO2 and decapitation. Crown to rump length (CR), head width and head length were measured by calipers (Traceable Digital Calipers; Fisher Scientific, Pittsburg, Pa.). Head and chest circumference were collected by curling a string around the target area and measuring the length of the curled string by a ruler. Chicks chest were sprayed with 70% ethanol, were skinned to expose the PMM, and chest width and length were measured by calipers. Both sides of the PMM were removed and the left side was weighed, followed by length, width, and thickness measurement collection. Following measurement collection, the left PMM was submerged in optimal cutting temperature tissue freezing medium compound, slowly frozen at −20° C. for 1 h, and stored at −80° C. until cryosectioning. The right side of PMM was stored in a 1.5 ml microcentrifuge tube and stored at −80° C. until NAD+ analysis. At last, the heart and liver of each chick were removed, weighed, and discarded.

[1] = 250 mM NR into yolk sac d 10, E15 embryos
[2] = 250 mM NR into yolk sac d 10, E19 embryos
[3] = 250 mM NR into yolk sac d 10, hatched chicks
[4] = 500 mM NR into yolk sac d 10, E15 embryos
[5] = 500 mM NR into yolk sac d 10, E19 embryos
[6] = 500 mM NR into yolk sac d 10, hatched chicks
[7] = 1,000 mM NR into yolk sac d 10, E15 embryos
[8] = 1,000 mM NR into yolk sac d 10, E19 embryos
[9] = 1,000 mM NR into yolk sac d 10, hatched chicks
[10] = E19 embryos, 250 to 1,000 mM NR

In the case of `NC(=O)c1ccc[n+]([C@@H]2O[C@H](CO)[C@@H](O)[C@H]2O)c1` [Nicotinamide riboside, nicotinamide riboside], the Body weight [1] is reported as 14.5 g, the Crown-rump length [1] is reported as 61.4 mm and the Head length [1] is reported as 17.6 mm. It also gave a Head width [1] of 13.7 mm, a Heart weight [1] of 0.14 g and a Liver weight [1] of 0.27 g. For the same compound, the Pectoralis major depth [1] was 7.2 mm, the Pectoralis major length [1] was 18.3 mm and the Pectoralis major weight [1] was 0.81 g. For the same compound, the Pectoralis major width [1] was 14.7 mm, the Body weight [2] was 37.7 g and the Chest circumference [2] was 59.5 mm. The Chest length [2] was 18.6 mm, the Chest width [2] was 15.5 mm and the Crown-rump length [2] was 84.3 mm. For the same compound, the Head circumference [2] was 53.2^a,c mm, the Head length [2] was 17.7 mm and the Head width [2] was 15.4 mm. It also gave a Heart weight [2] of 0.22 g, a Liver weight [2] of 0.64 g and a Pectoralis major depth [2] of 2.9 mm. For the same compound, the Pectoralis major length [2] was 17.2^b mm, the Pectoralis major weight [2] was 0.17^b g and the Pectoralis major width [2] was 5.5 mm. It also gave a Body weight [3] of 46.9 g, a Chest circumference [3] of 61.2 mm and a Chest length [3] of 21.9 mm. For the same compound, the Chest width [3] was 17.1^b mm, the Crown-rump length [3] was 95.4 mm and the Head circumference [3] was 55.7 mm. The Head length [3] was 18.7^b mm, the Head width [3] was 15.5 mm and the Heart weight [3] was 0.31 g. The Liver weight [3] was 0.84 g, the Pectoralis major depth [3] was 3.1^a,b mm and the Pectoralis major length [3] was 19.9^b mm. The Pectoralis major weight [3] was 0.23^b g, the Pectoralis major width [3] was 5.5^b mm and the Body weight [4] was 14.2 g. For the same compound, the Crown-rump length [4] was 61.1 mm, the Head length [4] was 17.8 mm and the Head width [4] was 13.7 mm. It also gave a Heart weight [4] of 0.13 g, a Liver weight [4] of 0.25 g and a Pectoralis major depth [4] of 7.1 mm. It also gave a Pectoralis major length [4] of 17.8 mm, a Pectoralis major weight [4] of 0.82 g and a Pectoralis major width [4] of 15.2 mm. The Body weight [5] was 37.9 g, the Chest circumference [5] was 60.1 mm and the Chest length [5] was 18.5 mm. The Chest width [5] was 16.3 mm, the Crown-rump length [5] was 85.9 mm and the Head circumference [5] was 54.8^b,c mm. The Head length [5] was 17.4 mm, the Head width [5] was 15.3 mm and the Heart weight [5] was 0.22 g. The Liver weight [5] was 0.64 g, the Pectoralis major depth [5] was 2.7 mm and the Pectoralis major length [5] was 17.7^b mm. For the same compound, the Pectoralis major weight [5] was 0.18^b g, the Pectoralis major width [5] was 5.7 mm and the Body weight [6] was 46.1 g. For the same compound, the Chest circumference [6] was 62.5 mm, the Chest length [6] was 21.2 mm and the Chest width [6] was 16.6^a,b mm. For the same compound, the Crown-rump length [6] was 95.0 mm, the Head circumference [6] was 55.6 mm and the Head length [6] was 18.2^a,b mm. For the same compound, the Head width [6] was 15.7 mm, the Heart weight [6] was 0.31 g and the Liver weight [6] was 0.90 g. The Pectoralis major depth [6] was 3.3^b mm, the Pectoralis major length [6] was 20.3^b mm and the Pectoralis major weight [6] was 0.23^b g. The Pectoralis major width [6] was 5.6^b mm, the Body weight [7] was 13.9 g and the Crown-rump length [7] was 61.0 mm. The Head length [7] was 17.4 mm, the Head width [7] was 14.0 mm and the Heart weight [7] was 0.14 g. The Liver weight [7] was 0.28 g, the Pectoralis major depth [7] was 6.6 mm and the Pectoralis major length [7] was 18.5 mm. The Pectoralis major weight [7] was 0.84 g, the Pectoralis major width [7] was 14.9 mm and the Body weight [8] was 38.1 g. For the same compound, the Chest circumference [8] was 61.5 mm, the Chest length [8] was 18.3 mm and the Chest width [8] was 15.4 mm. The Crown-rump length [8] was 86.3 mm, the Head circumference [8] was 55.0^b mm and the Head length [8] was 17.6 mm. The Head width [8] was 15.4 mm, the Heart weight [8] was 0.23 g and the Liver weight [8] was 0.63 g. The Pectoralis major depth [8] was 2.9 mm, the Pectoralis major length [8] was 17.6^b mm and the Pectoralis major weight [8] was 0.17^b g. The Pectoralis major width [8] was 5.6 mm, the Body weight [9] was 46.6 g and the Chest circumference [9] was 61.4 mm. The Chest length [9] was 21.1 mm, the Chest width [9] was 16.1^a mm and the Crown-rump length [9] was 93.0 mm. For the same compound, the Head circumference [9] was 53.9 mm, the Head length [9] was 17.8^a mm and the Head width [9] was 15.5 mm. For the same compound, the Heart weight [9] was 0.32 g, the Liver weight [9] was 0.96 g and the Pectoralis major depth [9] was 3.0^a mm. The Pectoralis major length [9] was 19.1^a,b mm, the Pectoralis major weight [9] was 0.22^b g and the Pectoralis major width [9] was 5.4^b mm. For the same compound, the “Increase of PMM length (minimum over NR doses)” value [10] was no less than 13%, the “Increase of PMM weight (minimum over NR doses)” value [10] was no less than 21% and the “Increase in PMM depth” value (at hatch) was 18%. The “Increase in PMM length” value (at hatch) was 13%, the “Increase in PMM width” value (at hatch) was 17% and the PMM weight advantage (at hatch) was 35%.
